Laboratory results reported in patent publication US11857601B2, “Pharmaceutical composition for cancer treatment comprising fusion protein including IL-2 protein and CD80 protein and anticancer drug” (GI INNOVATION, INC., priority 2020, dated 2024).
Marks after values point to notes of the source that are not given here. One block for each substance: values may come before it.

Tests used:
[1] = test system: CD8+ T cells and NK cells; assay: Proliferation of CD8+ T cells and NK cells in mouse spleen; type: in vivo, C57BL/6 mice; conditions: 40.5 μg i.p., spleen five days after injection; compared with GI101w
Description: 7-week-old C57BL/6 mice purchased from Orient Bio (Korea) were divided into 3 groups, each group including 3 mice, and PBS, GI101, or GI101w was injected intraperitoneally thereinto. Here, GI101 and GI101w were respectively prepared to be at 40.5 μg in 200 μl of PBS, and injected intraperitoneally thereinto. Five days after the injection, the spleens were removed from the mice of each group. The cells were isolated therefrom, and the total number of cells was measured using a hematocytometer. Splenocytes were examined for proportions of CD8+ T cells and NK cells therein, with FACS analysis using staining with APC-CD3ε antibody (Biolegend; 145-2C11), PE-NK1.1 antibody (Biolegend; PK136), and Pacific blue-CD8α antibody (BD; 53-6.7). As such, the numbers of CD8+ T cells and NK cells present in the spleen were calculated.

HCT116 cells = assay: Cancer cell killing, GI-101 and Cetuximab, HCT116 with NK cells; type: cell-based, human; conditions: GI-101 100 nM, Cetuximab 68.6 nM, 24 hours
Description: HCT116 cells were purchased from the Korea cell line bank and cultured in McCoy's 5A medium (ATCC) containing 10% FBS (Gibco) and 1% antibiotic/antifungal agent (Gibco). For use in cancer cell killing test, the cells were harvested using trypsin (Gibco), and then suspended in McCoy's 5A medium, and then dead cells and debris were removed using Ficoll (GE Healthcare Life Sciences) solution. The cells suspended in McCoy's 5A medium were carefully layered on ficoll solution. The cell layer with a low specific gravity formed by centrifuging at room temperature at 350×g for 20 minutes was collected with a pipette, washed with PBS (Gibco), and then centrifuged at room temperature at 350×g for 5 minutes. The separated cell layer was made into a suspension of 2×10^5 cells/mL with FBS-free RPMI1640 medium. […]
In order to identify the effect of killing the cells, a CytoTox Green reagent ([…] ™ CytoTox Green, Satorius) that binds to the DNA of cells to be killed was prepared in 1 μl per 1 mL of RPMI1640 medium containing 5% human AB serum (Sigma). The prepared medium was used for dilution of the test substance, and the effect of killing the cells could be quantitatively identified by staining the cells to be killed when the test substance was co-cultured with cancer cell lines and PBMCs. […]

IL-2Rβ = target: T1, IL-2Rβ (Homo sapiens, UniProt P14784); assay: Binding to IL-2Rβ (Octet, Ni-NTA biosensor); conditions: as compared with GI101w and Proleukin
T1 construct: purchased Acro CD2-H5221
T1 sequence (P14784 27-551): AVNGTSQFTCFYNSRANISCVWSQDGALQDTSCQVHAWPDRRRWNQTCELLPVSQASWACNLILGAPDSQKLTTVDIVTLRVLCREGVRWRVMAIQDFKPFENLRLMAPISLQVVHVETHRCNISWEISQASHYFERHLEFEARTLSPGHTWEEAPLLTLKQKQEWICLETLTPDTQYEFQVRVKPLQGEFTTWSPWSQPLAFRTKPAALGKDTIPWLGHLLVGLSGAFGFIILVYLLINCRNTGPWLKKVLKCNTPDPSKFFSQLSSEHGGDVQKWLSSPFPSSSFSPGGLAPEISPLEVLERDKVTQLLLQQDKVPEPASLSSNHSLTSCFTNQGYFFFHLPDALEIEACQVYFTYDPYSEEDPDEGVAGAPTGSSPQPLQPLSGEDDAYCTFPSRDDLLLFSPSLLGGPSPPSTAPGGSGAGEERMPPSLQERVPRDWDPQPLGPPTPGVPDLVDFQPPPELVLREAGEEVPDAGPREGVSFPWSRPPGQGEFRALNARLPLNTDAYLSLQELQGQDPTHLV
Description: The binding ability for IL-2Rα was measured using the AR2G biosensor, and the binding ability for IL-2Rβ was measured using the Ni-NTA biosensors (Nickel charged Tris-NTA, Ni-NTA Biosensors, ForteBio, 18-5101).
Meanwhile, a ligand (IL-2Rβ-His Tag, Acro, Cat: CD2-H5221) to be attached to the Ni-NTA biosensor was diluted with 1×Ni-NTA kinetic buffer to a concentration of 5 μg/ml. The diluted ligand was loaded on the Ni-NTA biosensor for 600 seconds and fixed.
Thereafter, GI101, GI101w, or Proleukin (Novartis, hIL-2), at various concentrations, to be attached to the ligand was loaded thereon for 300 seconds. Then, binding thereof was measured and dissociation thereof was also measured for 300 seconds. Binding kinetics analysis was performed using Octet Data Analysis HT software ver. 10 provided by Pall Corporation. The results are illustrated in FIGS. 22 to 24.

LL/2 cell line = assay: mGI-101 and Axitinib in LL/2 allotransplanted tumor model; type: in vivo, C57BL/6 mice; conditions: mGI-101 3 mg/kg IP, Axitinib 30 mg/kg PO
Description: (§1) Mouse-derived colorectal cancer cells, CT26 (Mus musculus, Colon adenocarcinoma), and mouse-derived lung cancer cells, LL/2 (Mus musculus, Lung adenocarcinoma), were purchased from ATCC (USA) and used for the test. The cells to be used for the test were thawed, mixed with RPMI1640 (A1049101, Thermofisher scientific) medium containing 10% FBS (fetal bovine serum, Gibco, 10082-147), and then placed in a cell culture flask, and cultured in a 37° C., 5% CO2 incubator. The cells were washed with PBS, and then the cells were isolated using Trypsin-EDTA (15090, Gibco), and centrifugation (125×g, 5 minutes) was performed to discard the supernatant, and then the cells were suspended in a new medium to obtain the cell suspension. The viability of the cells was identified, and then a cell line was prepared by diluting in a medium to a concentration of 5.0×10^6 cells/mL.
(§2) 6-week-old male BALB/cAnHsd mice or C57BL/6NHsd mice were purchased and used for the test. After the end of the acclimation period of 7 days, the cells were transplanted into healthy animals. The cell suspension (5×10^6 cells/mL) was dispensed, and filled into a disposable syringe, and transplantation of the suspension was performed by subcutaneous administration at 0.1 mL/head in the right dorsal region of the animals. General symptoms were observed once a day during the engraftment and growth period after cell line transplantation.
(§3) After the inoculation of the cell line was performed, when the tumor size at the site to which the cell line was transplanted reached about 50 mm^3, the tumor size of each group was distributed as uniformly as possible according to the ranked tumor size.
(§4) The test substance was administered orally or intraperitoneally, and administered for 3 weeks depending on the composition of the test group. In the case of oral administration, the animals were fixed with the cervical spine skin fixation method, and administered directly into the stomach using a sonde for oral administration. In the case of intraperitoneal administration, the animals were fixed with the cervical spine skin fixation method, and administered intraperitoneally using a syringe equipped with a 26 gauge needle. The administration rate was not to exceed 200 μl/min.
Syngeneic model was prepared by subcutaneously transplanting the LL/2 cell line into C57BL/6 mice, and then the test substance was administered to evaluate the anticancer effect.

CT26 cells = assay: mGI-101 and Axitinib in CT26 allotransplanted tumor model; conditions: mGI-101 3 mg/kg IP, Axitinib 30 mg/kg PO;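 also: subcutaneous CT26 syngeneic tumors in male BALB/c mice, dosing started once tumors were near 50 mm^3, drugs given orally or intraperitoneally for up to 3 weeks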
Description: as §1, §2, §3, §4
Syngeneic model was prepared by subcutaneously transplanting the CT26 cell line into Balb/c mice, and then the test substance was administered to evaluate the anticancer effect.

TC1 cells = assay: mGI-101, Cisplatin, Pemetrexed and anti-PD-1 antibody, 1st line and maintenance therapy, TC1 tumor model; type: in vivo, C57BL/6 mice; conditions: mGI-101 3 mg/kg i.p. QW; compared with anticancer chemotherapeutic agent and anti-PD-1 antibody
Description: Mouse-derived lung cancer cell line, TC1, was purchased from ATCC (USA) and used for the test.
TC1 cells were cultured in RPMI1640 medium (Gibco) containing 10% FBS (Gibco) and 1% antibiotic/antifungal agent (Gibco). The cultured cells were harvested using trypsin (Gibco), and then 1×10^6 of TC1 cells were subcutaneously injected into the right flank of C57BL/6 female mice (7-week-old) in order to establish an allotransplanted tumor model.
The mice were randomly assigned based on tumor volume (˜100 mm^3), each group including 13 to 19 mice. The tumor grafts were identified about day 2 after cell inoculation.
The test was divided into the 1st line treatment and the anticancer maintenance therapy. […]
Clinical symptoms such as a disease and a behavioral change were observed once a day during the test period, and deceased animals were identified, and the mice were sacrificed when the tumor size reached a size of 4,000 mm^3. The size of the TC1 solid cancer was measured using a tumor 3D scanner (TM900, Peria, Belgium). […] The anti-tumor efficacy was evaluated as compared with the mouse IgG4 control. […]

binding ability for IL-2Rβ (IL-2Rβ): high binding ability
Substance: GI101: fusion protein: human CD80 fragment, Ig hinge, Fc domain, linker, IL-2 variant (2M) (R38A, F42A); SEQ ID NO: 9
proliferation of CD8+ T cells and NK cells in vivo [1]: activated proliferation
level of killing cancer cells (HCT116 cells): high level of killing cancer cells

Substance: mGI101: fusion protein: mouse CD80, Ig hinge, Fc domain, linker, IL-2 variant (2M) (R38A, F42A); SEQ ID NO: 15
Tumor size (LL/2 cell line; Day 0, mean ± SD): 55.70 ± 11.48 mm^3
Tumor growth inhibition (LL/2 cell line; Day 2, mean ± SD): −7.12 ± 34.31%
Tumor size (LL/2 cell line; Day 2, mean ± SD): 99.18 ± 19.96 mm^3
Tumor growth inhibition (LL/2 cell line; Day 5, mean ± SD): 1.83 ± 27.19%
Tumor size (LL/2 cell line; Day 5, mean ± SD): 179.58 ± 39.71 mm^3
Tumor growth inhibition (LL/2 cell line; Day 7, mean ± SD): 12.67 ± 19.15%
Tumor size (LL/2 cell line; Day 7, mean ± SD): 409.37 ± 72.98 mm^3
Tumor growth inhibition (LL/2 cell line; Day 9, mean ± SD): 5.78 ± 24.08%
Tumor size (LL/2 cell line; Day 9, mean ± SD): 749.00 ± 174.47 mm^3
Tumor growth inhibition (LL/2 cell line; Day 12, mean ± SD): 6.89 ± 28.47%
Tumor size (LL/2 cell line; Day 12, mean ± SD): 1066.72 ± 307.18 mm^3
Tumor growth inhibition (LL/2 cell line; Day 14, mean ± SD): 1.85 ± 36.39%
Tumor size (LL/2 cell line; Day 14, mean ± SD): 1608.00 ± 572.50 mm^3
Tumor growth inhibition (LL/2 cell line; Day 16, mean ± SD): 0.91 ± 39.37%
Tumor size (LL/2 cell line; Day 16, mean ± SD): 2200.03 ± 850.12 mm^3
Tumor growth inhibition (LL/2 cell line; Day 19, mean ± SD): −5.99 ± 39.91%
Tumor size (LL/2 cell line; Day 19, mean ± SD): 3223.87 ± 1191.11 mm^3
Tumor growth inhibition (LL/2 cell line; Day 21, mean ± SD): −2.78 ± 32.04%
Tumor size (LL/2 cell line; Day 21, mean ± SD): 5431.08 ± 1673.60 mm^3
Tumor size (CT26 cells; Day 0, mean ± SD): 63.53 ± 11.56 mm^3
Tumor growth inhibition (CT26 cells; Day 5, mean ± SD): 58.32 ± 24.95 %
Tumor size (CT26 cells; Day 5, mean ± SD): 186.53 ± 76.61 mm^3
Tumor growth inhibition (CT26 cells; Day 7, mean ± SD): 62.12 ± 38.89 %
Tumor size (CT26 cells; Day 7, mean ± SD): 249.93 ± 149.08 mm^3
Tumor growth inhibition (CT26 cells; Day 9, mean ± SD): 62.87 ± 34.95 %
Tumor size (CT26 cells; Day 9, mean ± SD): 290.71 ± 165.17 mm^3
Tumor growth inhibition (CT26 cells; Day 12, mean ± SD): 66.48 ± 29.50 %
Tumor size (CT26 cells; Day 12, mean ± SD): 352.46 ± 195.64 mm^3
Tumor growth inhibition (CT26 cells; Day 14, mean ± SD): 65.87 ± 29.12 %
Tumor size (CT26 cells; Day 14, mean ± SD): 520.04 ± 307.47** mm^3
Tumor growth inhibition (CT26 cells; Day 16, mean ± SD): 52.36 ± 41.33 %
Tumor size (CT26 cells; Day 16, mean ± SD): 962.28 ± 634.90** mm^3
Tumor growth inhibition (CT26 cells; Day 19, mean ± SD): 41.48 ± 52.17 %
Tumor size (CT26 cells; Day 19, mean ± SD): 1395.48 ± 982.61** mm^3
Tumor growth inhibition (CT26 cells; Day 21, mean ± SD): 44.57 ± 46.55 %
Tumor size (CT26 cells; Day 21, mean ± SD): 1987.45 ± 1320.62**** mm^3
anticancer effect, anticancer maintenance therapy (TC1 cells): as much anticancer effect as the group having received an anticancer chemotherapeutic agent and an anti-PD-1 antibody
